Format in all cases: cell-based, human
Assay [1] has as its system ERα. As to the kind of experiment: ERα mRNA by RT-PCR in stimulated MDA-MB-231 cells. To be noted: time points 6, 12, 18 and 24 hours. The method, then:
(§1) Breast cancer cells were grown in 6 well plates and stimulated with recombinant Wnt-5a protein (rW5a) or the Wnt-5a derived Foxy-5 peptide (F5), for 6, 12, 18 or 24 h. RNA was extracted at the end time point, cDNA synthesized and subjected to RT-PCR for ERα and the housekeeping gene, β-actin. A: MDA-MB-231 breast cancer cells, B: MDA-MB-468 breast cancer cells. The positive control (Pos) is RNA extracted from T47D cells which express ERα. The negative control represents a water control.
(§2) Stimulation of cells was performed with recombinant Wnt-5a (0.6 μg/ml) and recombinant Wnt-3a (0.1 μg/ml and in a control experiment, 0.6 μg/ml) (R&D Systems Abington, UK) for times as indicated. The Wnt-5a derived formylated hexapeptide, Foxy-5 (formyl-MDGCEL) (SEQ. ID. NO. 1) designed in the laboratory of the inventors, and a formylated random hexapeptide (formyl-MSADVG) (SEQ: ID: NO: 16) were either synthesized by Pepscan Presto (Lelystad, The Netherlands) or Inbiolabs (Tallinn, Estonia). The peptides were purified by RP-HPLC and mass spectrometry, and the >95% pure peptides were synthesized three times. […]
(§3) RNA extraction was performed in a designated clean RNA area with the addition of 500 μl TRIzol to each sample. […] The RNA concentration was measured using a Nanodrop Spectrophotometer ND-1000 (Bio-Rad (Hercules Calif.)). […]

Assay [2] deals with ERα. Put plainly: ERα mRNA by RT-PCR in stimulated MDA-MB-468 cells. To be noted: time points 6, 12, 18 and 24 hours. The method, then: as §1, §2, §3
Assay [3] has as its system Caspase 3. As to the kind of experiment: Caspase 3 activity assay (fluorometric, DEVD-amc). To be noted: MDA-MB-231, stimulation plus tamoxifen 1 μM 20 hours; compared to untreated cells or tamoxifen alone. The protocol: MDA-MB-231 cells were grown in 6 well plates and stimulated with recombinant Wnt-5a protein (rW5a) or the Wnt-5a derived Foxy-5 peptide (F5), for 24 or 48 h. Cells were treated with tamoxifen for the final 20 h and their apoptotic responses were measured via different methods. […] Arrows highlight apoptotic cells. Bars represent […]. B: Following treatment with rW5a, F5 and tamoxifen, or tamoxifen alone, cells were lysed and subjected to SDS-PAGE, transferred to nitrocellulose membranes and blotted for cleaved caspase 3. C: Treated cells were assessed for their relative caspase 3 activity using fluorometric spectrophotometry. The graph represents 6 separate experiments. * P<0.01, ** P<0.001. D: MTT assays were also performed on MDA-MB-231 cells treated with rWnt-5a, F5 and tamoxifen, or tamoxifen alone (MDA-MB-231 and MCF-7 cells) to assess cell growth inhibition. The graph represents the average of 6 separate experiments, with standard deviation represented by error bars. ** P<0.01, *** P<0.001.
Caspase 3 activity was determined via fluorescent spectrometry. The fluorogenic peptide DEVD-amc (Upstate Biotech) was used as a substrate. […] Reactions were incubated at 37° C. for 1 h and analysed on a FLUOstar plate reader (BMG Lab technologies). The total protein content of each lysates was measured using the Coomassie Plus Protein Assay and read outs averaged and adjusted accordingly. […]

The test system of assay [4] is ERα promoter. As to the kind of experiment: Bisulfite genomic sequencing of the ERα promoter in MDA-MB-231 cells. As to conditions: 48 hours, rWnt-5a 0.6 μg/ml, Foxy-5 100 μM. The protocol: MDA-MB-231 cells were grown in normal media and either left untreated, or stimulated with rWnt-5a protein (rWnt-5a, 0.6 μg/ml)) or the Wnt-5a derived Foxy-5 peptide (F5, 100 μM), for 48 hours. MCF-7 cells were grown for the same amount of time, and were left untreated. DNA was extracted from each sample and subjected to bisulfite modification. Bisulfite treated DNA was subjected to bisulfite genomic sequencing (BGS) of the ERα promoter using nested PCR with primers for the ERα promoter region. PCR products were cloned and 10 random clones sequenced. Filled (black) circles represent methylation at a given cytosine, empty (white) circles represent either unmethyllated cytosine or cytosines demethylated following rWnt-5a or Foxy-5 treatment. The numbers represent the position of CpG dinculeotides relative to the transcription start site (+1). The TATA box is located between positions −17 and +13.
DNA was extracted from cells according to standard procedures. 1 μg of DNA was then bisulfite treated using the EpiTect Bisulfite Kit (Qiagen) and amplified via nested PCR with primers for the ERα promoter region. PCR products were cloned using the TOPO TA cloning kit (Invitrogen). 10 random clones were sequenced using an AB13730 DNA analyzer (Applied Biosystems).

Where no end group is shown, it is not given here. The star is where a group is joined. For = O=C*

As for “formyl-MDGCEL (For-MDGCEL; listed as Homo sapiens) [Foxy-5]”, the “stimulation time after which ERα mRNA was detected” value in assay [1] and in assay [2] was 6 h each time. Further, the “increase of degree of apoptosis (caspase-3 activity)” value in assay [3] was “three”. Besides, the “methylation of the ERα CpG island” value in assay [4] is “demethylated”.

B1: recombinant Wnt-5a: recombinant Wnt-5a protein (R&D Systems) (protein, UniProt P41221 62-380, looked up)
Protein Wnt-5a: IIGAQPLCSQLAGLSQGQKKLCHLYQDHMQYIGEGAKTGIKECQYQFRHRRWNCSTVDNTSVFGRVMQIGSRETAFTYAVSAAGVVNAMSRACREGELSTCGCSRAARPKDLPRDWLWGGCGDNIDYGYRFAKEFVDARERERIHAKGSYESARILMNLHNNEAGRRTVYNLADVACKCHGVSGSCSLKTCWLQLADFRKVGDALKEKYDSAAAMRLNSRGKLVQVNSRFNSPTTQDLVYIDPSPDYCVRNESTGSLGTQGRLCNKTSEGMDGCELMCCGRGYDQFKTVQTERCHCKFHWCCYVKCKKCTEIVDQFVCK
Consider B1, for which the “stimulation time after which ERα mRNA was detected” value in assay [1] and in assay [2] was 12 h throughout. Besides, in assay [3], the “increase of degree of apoptosis (caspase-3 activity)” value is “two”. In assay [4], the “methylation of the ERα CpG island” value is reported as “demethylated”.

The values above are taken from US20110124574A1, “RESTORATION OF ESTROGEN RECEPTOR-(ALPHA) ACTIVITY” (priority 2008, published 2011).
